Data as given in patent US10376558B2, “Method and compositions for synchronizing time of insemination in gilts” (UNITED-AH II, LLC, priority 2012, dated 2019).

How the values were obtained:
Type in all cases: in vivo, swine
gilts [1] = test: Example 1: ovulation monitoring by transrectal ultrasonography after triptorelin gel at 96, 120 or 144 h after last MATRIX feeding; conditions: raw average, PTK 1-07 (rep 3); for % of Sows Ovulating: 200 mcg T at 120 h
Description: All gilts were individually fed MATRIX® as a top-dress for 14 days at the recommended rate of 15 mg/gilt/day. Gilts were withdrawn from MATRIX® feeding (last top feed in the morning on Day 0) and allotted to treatments. Controls were treated with a 1.2% methylcellulose gel formulation without triptorelin at 96 hours following MATRIX® withdrawal (last top-dress). The remaining gilts received 200 mcg triptorelin, as the acetate, in a 1.2% methylcellulose gel formulation intravaginally at various times after MATRIX® withdrawal. The four treatments were: 1) vehicle gel (VG) treatment at 96 hours after MATRIX® withdrawal, 2) triptorelin gel (TG) treatment at 96 hours after MATRIX® withdrawal, 3) TG treatment at 120 hours after MATRIX® withdrawal and 4) TG treatment at 144 hours after MATRIX® withdrawal. All gilts were monitored for their estrous and ovulatory status as described below. Gilts included in replicate 1 were selected from terminal line commercial production gilts located in grow/finish barns. Sexual maturity, as indicated by one or more estrous periods, was not verified prior to the start of MATRIX® feeding. Gilts included in replicate 2 were selected from a maternal line gilt population. Sexual maturity was verified by at least one estrous period verified and recorded prior to starting MATRIX® feeding.
The ovulatory status of all gilts was monitored by transrectal ultrasonography. For replicate one, ovulation was monitored two times on Day 5, then three times a day from Day 6 to Day 8. For replicate two, ovulation was monitored three times a day from Day 5 to Day 8. An Aloka 500 ultrasound machine with a 7.5 MHz linear array transducer attached to a fixed-angle PVC stabilizing rod to facilitate insertion into the rectum was used for this purpose. The transducer and PVC rod were coated with a gynecological lubricant and gently inserted into the rectum until the ovaries were visualized, one at a time. The diameters of the three largest follicles were recorded (to the nearest 0.1 mm) at each scanning. A gilt was declared to have ovulated when the number of large follicles (≥6.5 mm) fell to less than 3.
(§1) A single 2 mL dose of triptorelin gel or vehicle gel was deposited within approximately 1-2 cm posterior to the cervix with a catheter similar to those used for artificial insemination. The dose was delivered using a standard multi-dose applicator attached to the catheter. A new disposable sheath, which surrounds the catheter, was used for each gilt.
Data were analyzed using the Mixed Models procedures of SAS. Models included main effects of time of treatment following the last feeding of MATRIX®, replicate, and treatment by replicate interaction. Differences between treatments were tested on least squares means estimates using the T test at P<0.05. Data for analysis were tested for assumptions of data normality.

gilts [2] = test: Example 1: estrus detection after triptorelin gel at 96, 120 or 144 h after last MATRIX feeding; conditions: raw average, PTK 1-07 (rep 3); 200 mcg T at 120 h after MATRIX withdrawal
Description: All gilts were individually fed MATRIX® as a top-dress for 14 days at the recommended rate of 15 mg/gilt/day. Gilts were withdrawn from MATRIX® feeding (last top feed in the morning on Day 0) and allotted to treatments. Controls were treated with a 1.2% methylcellulose gel formulation without triptorelin at 96 hours following MATRIX® withdrawal (last top-dress). The remaining gilts received 200 mcg triptorelin, as the acetate, in a 1.2% methylcellulose gel formulation intravaginally at various times after MATRIX® withdrawal. The four treatments were: 1) vehicle gel (VG) treatment at 96 hours after MATRIX® withdrawal, 2) triptorelin gel (TG) treatment at 96 hours after MATRIX® withdrawal, 3) TG treatment at 120 hours after MATRIX® withdrawal and 4) TG treatment at 144 hours after MATRIX® withdrawal. All gilts were monitored for their estrous and ovulatory status as described below. Gilts included in replicate 1 were selected from terminal line commercial production gilts located in grow/finish barns. Sexual maturity, as indicated by one or more estrous periods, was not verified prior to the start of MATRIX® feeding. Gilts included in replicate 2 were selected from a maternal line gilt population. Sexual maturity was verified by at least one estrous period verified and recorded prior to starting MATRIX® feeding. […]
Data were analyzed using the Mixed Models procedures of SAS. […]

LH = test: Example 5: serum LH surge after triptorelin gel (jugular blood sampling); conditions: for Magnitude of LH surge: maximum serum LH concentration; for Onset of LH surge / Time of maximum LH conc.: relative to time of triptorelin gel treatment; for Time of maximum LH conc.: in h (unit assumed); for Gilts, which displayed a LH surge: number of gilts
Description: All gilts were individually fed MATRIX® as a top-dress for 14 or 15 days at the recommended rate of 15 mg/gilt/day. Gilts were withdrawn from MATRIX® feeding (last top-dress in the morning on Day 0) and allocated to each of the following treatments. Controls were vehicle gel treated (vehicle gel without triptorelin) at 120 (+/−2) hours following MATRIX® withdrawal (last top dress). The other gilts were given 100, 200 or 400 mcg triptorelin as the acetate in a methylcellulose gel formulation 120 (+/−2) hours following MATRIX® withdrawal. The four treatments were:
A catheter was inserted non-surgically into the jugular vein (Kraeling et al. 1982) of a subpopulation of gilts in each treatment group (vehicle gel, n=8; 100 mcg triptorelin, n=6; 200 mcg triptorelin, n=7 and 400 mcg triptorelin, n=6). Ten mL blood samples were collected every 15 minutes for one hour prior to treatment, immediately following treatment (0) and at 0.5, 1, 2, 4, 6, 12, 18, 24, 36 and 48 hours after treatment. Blood samples were maintained at 4° C. until centrifuged at 800×g for 15 minutes within 12 hours of collection. The resulting serum was stored frozen until assayed for LH using validated procedures for pig serum (Kesner et al., 1987 and Kraeling et al., 1982). Onset, duration, and magnitude of the LH surge were analyzed. The LH data were analyzed with the General Linear Models procedure of SAS. Differences between treatments were tested on least squares means estimates using the T test at P<0.05. Onset of the LH surge is when serum LH concentration is greater than or equal to two standard deviations of the mean of the pre-treatment serum LH concentrations. Duration of the LH surge is the period between onset and when serum LH concentration is again less than or equal to two standard deviations of the mean of the pre-treatment serum LH concentrations. Magnitude of the LH surge is the maximum serum LH concentration reached during the LH surge.
as §1

gilts [3] = test: Example 5: ovulation monitoring by transrectal ultrasonography after 100, 200 or 400 mcg triptorelin gel at 120 h post-MATRIX; conditions: 400 mcg T (n = 6 catheterized gilts)
[4] = 100 mcg T (n = 6), Least Squares Mean ± SE
[5] = 200 mcg T (n = 7), Least Squares Mean
[6] = 400 mcg T (n = 6), Least Squares Mean ± SE

## CC(C)C[C@H](NC(=O)[C@@H](Cc1c[nH]c2ccccc12)NC(=O)[C@H](Cc1ccc(O)cc1)NC(=O)[C@H](CO)NC(=O)[C@H](Cc1c[nH]c2ccccc12)NC(=O)[C@H](Cc1c[nH]cn1)NC(=O)[C@@H]1CCC(=O)N1)C(=O)N[C@@H](CCCNC(=N)N)C(=O)N1CCC[C@H]1C(=O)NCC(N)=O [T, pGlu-His-Trp-Ser-Tyr-D-Trp-Leu-Arg-Pro-Gly-NH2]
Gilts [1]; 128 h post-MATRIX, 8 h post-T
  % of Sows Ovulating: 0.0%
Gilts [1]; 136 h post-MATRIX, 16 h post-T
  % of Sows Ovulating: 10.0%
Gilts [1]; 144 h post-MATRIX, 24 h post-T
  % of Sows Ovulating: 30.0%
Gilts [1]; 152 h post-MATRIX, 32 h post-T
  % of Sows Ovulating: 70.0%
Gilts [1]; 160 h post-MATRIX, 40 h post-T
  % of Sows Ovulating: 80.0%
Gilts [1]; 168 h post-MATRIX, 48 h post-T
  % of Sows Ovulating: 90.0%
Gilts [1]; 176 h post-MATRIX, 56 h post-T
  % of Sows Ovulating: 100.0%
Gilts [1]; 200 mcg T at 120 h after MATRIX withdrawal
  Interval from MATRIX Withdrawal to Ovulation: 153.6
Gilts [2]
  Estrous Expression (%): 100.0%
  Interval from MATRIX withdrawal to Estrus: 129.6 h
LH; [4]
  Duration of LH surge: 19 ± 2
  Magnitude of LH surge: 3.94 ± 1.22
  Onset of LH surge: 4 ± 3
  Time of maximum LH conc.: 11 ± 7
LH; 100 mcg T in gel at 120 h post-MATRIX (n = 6 catheterized gilts)
  Gilts, which displayed a LH surge: 4
LH; [5]
  Duration of LH surge: 18
  Magnitude of LH surge: 8.98
  Onset of LH surge: 0.5
  Time of maximum LH conc.: 4
LH; 200 mcg T in gel at 120 h post-MATRIX (n = 7 catheterized gilts)
  Gilts, which displayed a LH surge: 1
LH; [6]
  Duration of LH surge: 17 ± 4
  Magnitude of LH surge: 11.65 ± 12.35
  Onset of LH surge: 4 ± 4
  Time of maximum LH conc.: 12 ± 4
LH; 400 mcg T in gel at 120 h post-MATRIX (n = 6 catheterized gilts)
  Gilts, which displayed a LH surge: 5
Gilts [3]; after treatment
  Percentage ovulated by 48 hours: 100%
Gilts [3]; relative to time of triptorelin gel treatment, Least Squares Mean ± SE
  Time at which ovulation detected: 40 ± 8 h
